Where no end group is shown, it is not given here.
Legend:
Human Fibroblasts = assay: Trypan blue dye exclusion toxicity on human fibroblasts; format: cell-based; conditions: for cell death: 1 millimolar, 72 hours of incubation, fibroblasts; for % toxicity: trypan blue
Description: (§1) Cellular toxicity was measured using a trypan blue dye exclusion assay. Cells were cultured in 6-well plates at a density of 4×10^5 cells per well. […] After 24 hours, an aliquot was taken and cells counted using a hemacytometer. Cytotoxicity was measured according to the following formula: […]
(§2) The same procedure was repeated after 3 and 6 days of incubation.

[1] = tested on: human metastatic melanoma line harboring the V600E BRAF mutation; assay: MTT cell proliferation and viability assay, human melanoma cells
Description: (§3) Human and mouse melanoma cell lines as wells as Fibroblasts were cultured using DMEM with L-glutamine, 10 percent FBS and 1 percent P/S (Thermo Fisher Scientific, NY). Human melanocytes were cultured using medium 254 (Thermo Fisher Scientific, NY) and incubated at 37 degrees Celsius in a humidified 5 percent CO2 chamber.
(§4) Proliferation rates were determined using a TACS® MTT Cell Proliferation Kit (R&D Systems, Minneapolis, Minn.). Cells were seeded at 2.5×10 ^4 per well in 96-well plates in a humidified atmosphere with 5 percent CO2 at 37 degrees Celsius. Twenty-four hours later, oligopeptides or hydroquinone were added to the corresponding wells at varying concentrations (0.03, 0.1, 0.3, 1, and 3 millimolar (mM)), and cultures were incubated for 72 hours. The remainder of the procedure was performed following the manufacturer's protocol.

[2] = tested on: human epidermal keratinocytes; assay: Cytotoxicity towards human epidermal keratinocytes (figures); format: cell-based; conditions: normal human epidermal keratinocytes, 3 millimolar in figure
Description: Human neonatal epidermal keratinocytes were cultured in Epilife media containing 60 μM of calcium chloride (Thermo Fisher Scientific, NY). All cell cultures were incubated in a humidified chamber at 37 degrees Celsius and 5 percent CO2.
The figures show human epidermal keratinocytes with 3 millimolar P5, human epidermal keratinocytes with 3 millimolar P14, and human epidermal keratinocytes with 3 millimolar HQ.

mouse melanoma cells = conditions: for cell death / cytotoxicity: 3 millimolar, incubation for 3 days, MTT (FIG. 4); for cytotoxicity to mouse melanoma (figure): treated with 3 millimolar, figure vs untreated
Description: as §3, §4

[3] = tested on: Human Primary Melanocytes; assay: Trypan blue dye exclusion toxicity on human primary melanocytes; format: cell-based; conditions: for cell death: 1 millimolar, 72 hours of incubation, melanocytes; for % toxicity: trypan blue
Description: as §1, §2

Molecule	cell death (Human Fibroblasts) [%]	% toxicity (Human Fibroblasts; Day 1, 30 μM) [%]	% toxicity (Human Fibroblasts; Day 1, 100 μM) [%]	% toxicity (Human Fibroblasts; Day 1, 300 μM) [%]	% toxicity (Human Fibroblasts; Day 1, 1000 μM) [%]	% toxicity (Human Fibroblasts; Day 3, 30 μM) [%]	% toxicity (Human Fibroblasts; Day 3, 100 μM) [%]	% toxicity (Human Fibroblasts; Day 3, 300 μM) [%]	% toxicity (Human Fibroblasts; Day 3, 1000 μM) [%]	% toxicity (Human Fibroblasts; Day 6, 30 μM) [%]	% toxicity (Human Fibroblasts; Day 6, 100 μM) [%]	% toxicity (Human Fibroblasts; Day 6, 300 μM) [%]	% toxicity (Human Fibroblasts; Day 6, 1000 μM) [%]	cytotoxic effects towards keratinocytes [2]	cell death / cytotoxicity (mouse melanoma cells) [%]	cell death [3] [%]	% toxicity ([3]; Day 1, 30 μM) [%]	% toxicity ([3]; Day 1, 100 μM) [%]	% toxicity ([3]; Day 1, 300 μM) [%]	% toxicity ([3]; Day 1, 1000 μM) [%]	further results
Oc1ccc(O)cc1 [HQ, Hydroquinone, reference compound]	100	3	17	27	100	9	20	44	100	15	30	54	100	indiscriminate cytotoxicity	90	100	41	98	100	100	% toxicity (Human Fibroblasts; Day 1, 3000 μM): 100%; % toxicity (Human Fibroblasts; Day 3, 3000 μM): 100%; % toxicity (Human Fibroblasts; Day 6, 3000 μM): 100%; cytotoxicity ([1]; human, 72 h, 1 mM): ~80%; % toxicity ([3]; Day 1, 10 μM): 27%; % toxicity ([3]; Day 3, 10 μM): 29%; % toxicity ([3]; Day 3, 30 μM): 53%; % toxicity ([3]; Day 3, 100 μM): 100%; % toxicity ([3]; Day 3, 300 μM): 100%; % toxicity ([3]; Day 3, 1000 μM): 100%; % toxicity ([3]; Day 6, 10 μM): 35%; % toxicity ([3]; Day 6, 30 μM): 60%; % toxicity ([3]; Day 6, 100 μM): 100%; % toxicity ([3]; Day 6, 300 μM): 100%; % toxicity ([3]; Day 6, 1000 μM): 100%
CC(C)CC(NC(=O)C1CCCN1)C(=O)NCC(=O)O (centres unmarked) [P5, PLG]	3	0.1	0.1	0.1	2.1	0.1	0.1	0.5	2.6	0.1	0.1	1.1	3.9	very little to no cytotoxic effects	–	9	0.1	0.1	2.2	7.8	% toxicity (Human Fibroblasts; Day 1, 10 μM): 0.1%; % toxicity (Human Fibroblasts; Day 3, 10 μM): 0.1%; % toxicity (Human Fibroblasts; Day 6, 10 μM): 0.1%; cytotoxicity to mouse melanoma (figure) (mouse melanoma cells): selectively cytotoxic; % toxicity ([3]; Day 1, 3000 μM): 13.3%; % toxicity ([3]; Day 3, 30 μM): 0.1%; % toxicity ([3]; Day 3, 100 μM): 0.1%; % toxicity ([3]; Day 3, 300 μM): 2.4%; % toxicity ([3]; Day 3, 1000 μM): 8.7%; % toxicity ([3]; Day 3, 3000 μM): 13.5%; % toxicity ([3]; Day 6, 30 μM): 0.1%; % toxicity ([3]; Day 6, 100 μM): 0.1%; % toxicity ([3]; Day 6, 300 μM): 2.7%; % toxicity ([3]; Day 6, 1000 μM): 9.3%; % toxicity ([3]; Day 6, 3000 μM): 14.5%
RRFVLL [P14, RRFVLL]	–	–	–	–	–	–	–	–	–	–	–	–	–	very little to no cytotoxic effects	49	–	–	–	–	–	cytotoxicity ([1]; 1 millimolar, human melanoma cells, MTT (FIG. 5)): ~36%; cytotoxicity to human melanoma (figure) ([1]; treated with 3 millimolar, figure vs untreated): selectively cytotoxic; cytotoxicity to mouse melanoma (figure) (mouse melanoma cells): selectively cytotoxic

— patent US20230100707A1, “MELANOMA THERAPEUTICS” (ESCAPE THERAPEUTICS, INC., priority 2020, published 2023)
